Measurements from patent publication US9512396B2, “In vitro microphysiological system for high throughput 3D tissue organization and biological function” (The Trustees of the University of Pennsylvania, priority 2011, dated 2016).
Where two headings read alike, the source gives them in different places.

System: cardiac microtissues (CMTs)
Format: cell-based
Conditions: measured after 1 h
Protocol: In a first example, cardiomyocytes were isolated from 0-1 day neonatal Sprague Dawley rat pups by a Trypsin digestion protocol as previously described. The resulting cell population was immediately subjected to CMT generation. CMTs were cultured in high glucose DMEM (Mediatech, Inc.) containing 10% horse serum (Invitrogen), 2% chick embryo extract (Charles River Laboratories International, Inc.), 4 mM L-glutamine, 1 mM sodium pyruvate, 100 units/mL penicillin, and […] streptomycin (all from Invitrogen). Cell culture medium was changed every day. Stock solution of Isoproterenol (Sigma-Aldrich) of 10 mM was made in MilliQ water and stock solution of Digoxin (GlaxoSmithKline) of 10 mM was made in DMSO. Calcium staining was obtained by incubating CMTs for 1 h with the acetoxymethyl ester of fluo-3 (fluo-3/(AM), Invitrogen) as a fluorescent dye at 2 μM in PBS with 0.02% of Pluronic F127 (BASF).
Before cell seeding, the PDMS templates were sterilized in 70% ethanol followed by UV irradiation for 15 min and treated with 0.2% Pluronic F127 for 60 min to reduce cell adhesion. A reconstitution mixture, consisting of 1 mg/mL or 2.5 mg/mL liquid neutralized collagen I from rat tail (BO Biosciences) and 0.5 mg/mL fibrinogen from bovine plasma (Sigma-Aldrich), was then added to the surface of the substrates on ice and templates were degassed under vacuum to remove bubbles in the liquid. A cooled suspension of half a million cells within reconstitution mixture was then added to the substrate and the entire assembly was centrifuged to drive the cells into the micropatterned wells, resulting in around 500 cells per well. Excess collagen/fibrinogen and cells were removed by de-wetting the surface of the substrate before incubating at 37° C. to induce collagen polymerization. The appropriate media was then added to each substrate. By using a live/dead cell viability assay (Invitrogen), cell viability over time was estimated.
For quantifying microtissue forces, brightfield and fluorescence images were taken at 20 Hz within each template, using a Photometrics Evolve EMCCOcamera (Photometrics), and an A-Plan 10× objective on a Nikon Eclipse Ti (Nikon Instruments Inc.) equipped with a live cell incubator. Only tissues that were uniformly anchored to the tips of the cantilevers were included in the analysis. The displacement of fluorescent micro-beads at the top of the cantilevers was then tracked with using the SpotTracker plug-in in ImageJ (National Institutes of Health).
In one example, it was also examined whether CMTs responded appropriately to two cardiac compounds, isoproterenol and digoxin. To study the dose-response of the CMTs to these compounds, their concentrations were varied from 1 nM to 10 μM and the dynamic stress and the spontaneous frequency of CMTs were measured after 1 h (FIG. 13). Isoproterenol can be used as a β-adrenergic agonist with a positive chronotropic effect whereas digoxin is a cardiac glycoside that inhibits Na+/K+-ATPase (sodium pump), activates sarcoplasmic reticulum Ca2+-release channels and induces positive inotropic effects.

Structure (SMILES) | maximal stress increase (1 μM) [%] | chronotropic effect (spontaneous frequency) (10 μM) | inotropic effect (dynamic stress) (10 μM) | spontaneous frequency (10 μM) | inotropic response (dynamic stress) (between 1 nM and 1 μM) | effect on dynamic stress and spontaneous frequency of CMTs (1 nM) | change of spontaneous frequency (1 μM) | change of spontaneous frequency (10 μM) | inotropic effect (contractility, dynamic stress) (1 and 10 nM (so in the source)) | chronotropic action (spontaneous frequency) (1 and 10 μM) | inotropic action (contractility, dynamic stress) (10 and 100 nM)
C[C@H]1O[C@@H](O[C@H]2[C@@H](O)C[C@H](O[C@H]3[C@@H](O)C[C@H](O[C@H]4CC[C@@]5(C)[C@H](CC[C@@H]6[C@@H]5C[C@@H](O)[C@]5(C)[C@@H](C7=CC(=O)OC7)CC[C@]65O)C4)O[C@@H]3C)O[C@@H]2C)C[C@H](O)[C@@H]1O [Digoxin] | 22±4 | strong negative chronotropic effect | almost no inotropic effect | under 0.04±0.01 Hz | positive inotropic response | – | – | – | – | – | –
CC(C)NCC(O)c1ccc(O)c(O)c1 (centres unmarked) [Isoproterenol] | – | – | – | – | – | no observable effect | doubling | tripling | slight negative inotropic effect | positive chronotropic action | slight positive inotropic action
